Assay results from US20250019379A1, “NEW CRYSTAL FORM OF COMPOUND, AND PREPARATION METHOD THEREFOR AND USE THEREOF” (E-nitiate Biopharmaceuticals (Hangzhou) Co., Ltd, priority 2021, published 2025).
Several values for one entry are separate records, joined by “and”; a condition that tells them apart may be missing. Equal entries are not always repeated. Marks after values point to notes of the source that are not given here.

Key:
[1] = Hygroscopicity experiment; type: physicochemical; details: Chinese Pharmacopoeia 2020, General Chapter 9103
Description: The hygroscopicity data of the samples were collected using the ADVENTURE series dynamic gas phase adsorption instrument under N2 protection. The sample dosage is about 30 mg.
The hygroscopicity of the above crystalline form was determined with reference to the 2020 edition of the Chinese Pharmacopoeia, General Chapter 9103, Guidelines for Drug Hygroscopicity Tests.

[2] = tested on: atopic dermatitis animal model; assay: Atopic dermatitis animal model (dinitrochlorobenzene induced); type: in vivo, BALB/C mice; details: for Inhibition rate of auricular thickening / Inhibition rate of skin thickening: 10th day of treatment
Text: BALB/C mice, 55 pieces, female, were 6 weeks old at the time of purchase and 8 weeks old at the time of experiment, weighing 18 g-20 g. The animals were from Shanghai Lingchang Biotechnology Co, Ltd (SCXK (Shanghai) 2018-0003), experimental animal production certificate number 20180003012342: experimental animal use license number; SYXK(Shanghai)2020-0001 (Via Biotechnology (Shanghai) Ltd.).
Modeling and administration method; Use depilatory cream to remove the hair of an area of about 5 cm×2 cm from the top of the head to the back of each animal. The application time of the depilatory cream should be controlled within 2 minutes. Wash the depilated area with warm water and wash off the depilatory agent, immediately use a hair dryer to dry the animal's hair, and place the animal on a 37° C. constant-temperature electric blanket for 1 h-2 h. After the animal moves freely, place it in a breeding cage and recover for 1 day (if the animal's skin is red, swollen and damaged after hair removal, it will its elimination). On the second day, 42 animals with normal skin were selected and randomly divided into groups according to body weight, with 6 animals in each group, totaling 7 groups. Except for the G1 normal control group, each animal in the other groups was evenly smeared with 200 μL of 0.5 wt % dinitrochlorobenzene solution (the solvent was acetone and olive oil with a mass ratio of 3:1) on the back and auricle for three consecutive days every day. Induction (the first stage of induction), the second stage of induction started after 14 days, and was induced with 1 wt % dinitrochlorobenzene solution (the solvent was acetone and olive oil with a mass ratio of 3:1) every three days until the end of the experiment, start treatment and administration at the same time, and group administration is shown in Table 6.
Skin thickness (double layer): Use a vernier caliper to measure the double layer thickness of the back skin on the 1 day before modeling, and on the 14th, 17th, 20th, 23rd, 26th, and 28th days after modeling.
Auricle thickness: Use a vernier caliper to measure the thickness of the right auricle 1 day before modeling, and on days 14, 17, 20, 23, 26, and 28 after modeling.
AD-SI score: The condition score refers to the clinical SI scoring standard, and scores three indicators: skin color/erythema, scaly erythema, scaly/peeling/lichenification, thickening, and thickening/edema degree. The total score is 12 points. Scoring standard as follows:
Erythema/skin color: 0 points, none; 1 points, slight: light red; 2 points, moderate: red; 3 points, significant: dark red; 4 points, very obvious: extremely deep red.
Scaling/peeling/lichenification: 0 points, none; 1 point, slight: there are scales/peeling/lichenification on part of the epidermis, mainly subtle; 2 points, moderate: most of the skin surface is completely or incompletely covered with Scaling/peeling/lichenification, flaky; 3 points, significant: almost all skin is covered with scales/peeling/lichenification, and the scales/peeling/lichenification are thick and layered; 4 points, very obvious: all skin is covered with Scaling/peeling/lichenification, very thick and layered.
Thickening/edema: 0 points, none: flush with normal skin; 1 points, slight: slightly higher than the normal skin surface: 2 points, moderate: moderately raised, with round or sloped plaque edges: 3 points, obvious Score: The plaque is hypertrophic and the bulge is obvious; 4 points, very significant: it is highly thickened and the bulge is very obvious. Skin/auricle hyperplasia inhibition rate (%)=1−[(skin/auricle thickness of the treatment group−skin/auricle thickness of the blank control group)/skin/auricle thickness of the negative control group−skin/auricle of the blank control group thickness)]%.
All data are expressed as Mean±SD or Mean±SEM. Use the statistical analysis software SPSS23.0 to conduct normal distribution and homogeneity of variance tests on the data. […]

[3] = Solid state stability (HPLC purity, XRPD); type: physicochemical; details: for Purity (%): open
Description: Purity testing (via HPLC) and crystal form detection (via XRPD) were performed on starting samples, samples stored for one week, and samples stored for two weeks.

[4] = 3 mg/kg oral twice a day, Day 0
[5] = 3 mg/kg oral twice a day, Day 1
[6] = 3 mg/kg oral twice a day, Day 4
[7] = 3 mg/kg oral twice a day, Day 7
[8] = 3 mg/kg oral twice a day, Day 10
[9] = 10 mg/kg oral twice a day, listed as crystalline form A
[10] = 10 mg/kg oral twice a day, Day 0
[11] = 10 mg/kg oral twice a day, Day 1
[12] = 10 mg/kg oral twice a day, Day 4
[13] = 10 mg/kg oral twice a day, Day 7
[14] = 10 mg/kg oral twice a day, Day 10
[15] = 10 mg/kg oral twice a day, Day 10, listed as crystalline form A
[16] = 30 mg/kg oral twice a day, listed as crystalline form A
[17] = 30 mg/kg oral twice a day, Day 0
[18] = 30 mg/kg oral twice a day, Day 1
[19] = 30 mg/kg oral twice a day, Day 4
[20] = 30 mg/kg oral twice a day, Day 7
[21] = 30 mg/kg oral twice a day, Day 10
[22] = 30 mg/kg oral twice a day, Day 10, listed as crystalline form A

hygroscopicity class [1]: no or almost no hygroscopicity
weight gain (hygroscopicity) [1]: 0.05%
solid-state stability (conclusion) [3]: good solid-state stability
Purity (%) ([3]; 1 week, 25° C./60% RH): 99.64%
Purity (%) ([3]; 1 week, 40° C./75% RH): 99.62%
Purity (%) ([3]; 1 week, 60° C.): 99.62%
Crystal form changes ([3]; 1 week, 25° C./60% RH, 40° C./75% RH, 60° C.): no change
Purity (%) ([3]; 2 week, 25° C./60% RH): 99.60%
Purity (%) ([3]; 2 week, 40° C./75% RH): 99.60%
Purity (%) ([3]; 2 week, 60° C.): 99.66%
Crystal form changes ([3]; 2 week, 25° C./60% RH, 40° C./75% RH, 60° C.): no change
change in the crystalline form (XRPD) ([3]; after one week and two weeks of storage under the selected conditions): no change
change in purity ([3]; after one week and two weeks under the selected conditions): no significant change
Starting sample Purity (%) ([3]; starting sample): 99.59%
Structure (SMILES): C[C@@H](O)c1nc2cnc3[nH]ccc3c2n1N1CCC(CC#N)CC1 [Crystalline form A, (R)-2-(1-(2-(1-hydroxyethyl)imidazo[4,5-d]pyrrolo[2,3-b]pyridine-1(6H)-yl)piperidin-4-yl)acetonitrile]
Inhibition rate of auricular thickening ([2]; 3 mg/kg oral twice a day): 37.93%
Inhibition rate of skin thickening ([2]; 3 mg/kg oral twice a day): 14.43%
AD-SI score [2, 4]: 0.00 points
Average auricle thickness [2, 4]: 0.20 ± 0.00 mm
Average skin thickness (double layer) [2, 4]: 0.63 ± 0.01 mm
AD-SI score [2, 5]: 0.00 points
Average auricle thickness [2, 5]: 0.22 ± 0.01 mm
Average skin thickness (double layer) [2, 5]: 0.98 ± 0.01 mm
AD-SI score [2, 6]: 1.00 ± 0.00 points
Average auricle thickness [2, 6]: 0.30 ± 0.01 mm
Average skin thickness (double layer) [2, 6]: 1.08 ± 0.01 mm
AD-SI score [2, 7]: 6.50 ± 1.05 points
Average auricle thickness [2, 7]: 0.39 ± 0.03 mm
Average skin thickness (double layer) [2, 7]: 1.85 ± 0.12 mm
AD-SI score [2, 8]: 5.83 ± 0.75 points
Average auricle thickness [2, 8]: 0.57 ± 0.04 mm and 0.57 mm
Average skin thickness (double layer) [2, 8]: 2.35 ± 0.15 mm and 2.35 mm
Inhibition rate of auricular thickening ([2]; 10 mg/kg oral twice a day): 43.10%
Inhibition rate of skin thickening ([2]; 10 mg/kg oral twice a day): 20.40%
Inhibition rate of auricular thickening [2, 9]: 43.1%
Inhibition rate of skin thickening [2, 9]: 20.4%
AD-SI score [2, 10]: 0.00 points
Average auricle thickness [2, 10]: 0.20 ± 0.01 mm
Average skin thickness (double layer) [2, 10]: 0.60 ± 0.02 mm
AD-SI score [2, 11]: 0.00 points
Average auricle thickness [2, 11]: 0.23 ± 0.01 mm
Average skin thickness (double layer) [2, 11]: 0.94 ± 0.02 mm
AD-SI score [2, 12]: 0.50 ± 0.55 points
Average auricle thickness [2, 12]: 0.32 ± 0.01**^ mm
Average skin thickness (double layer) [2, 12]: 1.14 ± 0.04 mm
AD-SI score [2, 13]: 5.83 ± 1.17 points
Average auricle thickness [2, 13]: 0.43 ± 0.03 mm
Average skin thickness (double layer) [2, 13]: 1.49 ± 0.09 mm
AD-SI score [2, 14]: 4.67 ± 0.52 points
Average auricle thickness [2, 14]: 0.54 ± 0.07 mm and 0.54 mm
Average skin thickness (double layer) [2, 14]: 2.23 ± 0.17 mm and 2.23 mm
AD-SI score [2, 15]: 4.67 points
Average auricle thickness [2, 15]: 0.54 mm
Average skin thickness (double layer) [2, 15]: 2.23 mm
Inhibition rate of auricular thickening ([2]; 30 mg/kg oral twice a day): 50.00%
Inhibition rate of skin thickening ([2]; 30 mg/kg oral twice a day): 53.73%
Inhibition rate of auricular thickening [2, 16]: 50%
Inhibition rate of skin thickening [2, 16]: 53.73%
AD-SI score [2, 17]: 0.00 points
Average auricle thickness [2, 17]: 0.21 ± 0.01 mm
Average skin thickness (double layer) [2, 17]: 0.62 ± 0.02 mm
AD-SI score [2, 18]: 0.00 points
Average auricle thickness [2, 18]: 0.22 ± 0.01 mm
Average skin thickness (double layer) [2, 18]: 0.79 ± 0.05 mm
AD-SI score [2, 19]: 0.50 ± 0.55 points
Average auricle thickness [2, 19]: 0.29 ± 0.02 mm
Average skin thickness (double layer) [2, 19]: 1.05 ± 0.03 mm
AD-SI score [2, 20]: 3.00 ± 2.19 points
Average auricle thickness [2, 20]: 0.32 ± 0.01 mm
Average skin thickness (double layer) [2, 20]: 1.01 ± 0.08 mm
AD-SI score [2, 21]: 3.50 ± 1.39 points
Average auricle thickness [2, 21]: 0.50 ± 0.03 mm and 0.50 mm
Average skin thickness (double layer) [2, 21]: 1.56 ± 0.21 mm and 1.56 mm
AD-SI score [2, 22]: 3.5 points
Average auricle thickness [2, 22]: 0.5 mm
Average skin thickness (double layer) [2, 22]: 1.56 mm
